For this assay, the system named is L1210 leukemia ip in BDF1 mice, survival T/C. As to the kind of experiment: NCI In Vivo Anticancer Drug Screen. Data for tumor model L1210 Leukemia (intraperitoneal) in B6D2F1 (BDF1) mice. The settings on record: endpoint: mean survival time, higher = longer survival. In short, it runs like this: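 Value reflects the ratio of survival in compound-treated mice to survival in vehicle-treated controls, with both groups carrying the same transplanted tumor.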

The mark [1] stands for this setting: dose: 100.0 mg/kg/injection, schedule: Q01DX009 (ip), vehicle: saline with Tween-80.
The mark [2] stands for this setting: dose: 200.0 mg/kg/injection, schedule: Q01DX009 (ip), vehicle: saline with Tween-80.
The mark [3] stands for this setting: dose: 200.0 mg/kg/injection, schedule: Q04DX003 (ip), vehicle: saline.
Where [4] appears, read: dose: 50.0 mg/kg/injection, schedule: Q01DX001 (ip), vehicle: carboxymethylcellulose (CMC).
The mark [5] stands for this setting: dose: 100.0 mg/kg/injection, schedule: Q01DX001 (ip), vehicle: carboxymethylcellulose (CMC).
The mark [6] stands for this setting: dose: 200.0 mg/kg/injection, schedule: Q01DX001 (ip), vehicle: carboxymethylcellulose (CMC).
The mark [7] stands for this setting: dose: 100.0 mg/kg/injection, schedule: Q04DX002 (ip), vehicle: Klucel (hydroxypropylcellulose) (HPC).
[8] abbreviates: dose: 200.0 mg/kg/injection, schedule: Q04DX002 (ip), vehicle: Klucel (hydroxypropylcellulose) (HPC).
Setting [9] is: dose: 400.0 mg/kg/injection, schedule: Q04DX002 (ip), vehicle: Klucel (hydroxypropylcellulose) (HPC).
[10] abbreviates: dose: 200.0 mg/kg/injection, schedule: Q04DX002 (ip), vehicle: saline.

Molecules are shown by their SMILES. Where “and” joins values, the source holds several entries; their conditions need not be identical. Equal values may be shown once. Inconclusive results and toxic doses are left out.

Take `O=C(O)C1C2C3CC(C4CC43)C12` (configuration not stated): the T/C under setting [1] is 96 % of control; the T/C (dose: 100.0 mg/kg/injection, schedule: Q04DX003 (ip), vehicle: saline) was 96 % of control; the T/C under setting [2] is 106 % of control; the T/C under setting [3] is 93 % of control; the T/C (dose: 400.0 mg/kg/injection, schedule: Q01DX009 (ip), vehicle: saline with Tween-80) is 96 % of control; the T/C (dose: 400.0 mg/kg/injection, schedule: Q04DX003 (ip), vehicle: saline) was 100 % of control.
Consider `Cc1cccc[n+]1C`, for which the T/C was 111 % of control under setting [4]; 95 % of control (dose: 100.0 mg/kg/injection, schedule: Q01DX001 (ip), vehicle: Klucel (hydroxypropylcellulose) (HPC)); 92 % of control under setting [5]; 104 % of control (dose: 200.0 mg/kg/injection, schedule: Q01DX001 (ip), vehicle: Klucel (hydroxypropylcellulose) (HPC)); 103 % of control under setting [6].
Take `CC(C)c1ccccc1OS(=O)(=O)c1c(F)c(F)c(F)c(F)c1F`: the T/C is, setting by setting: (dose: 6.25 mg/kg/injection, schedule: Q01DX001 (ip), vehicle: Klucel (hydroxypropylcellulose) (HPC)) 103 % of control; (dose: 6.25 mg/kg/injection, schedule: Q01DX009 (ip), vehicle: saline with Tween-80) 108 % of control; (dose: 12.5 mg/kg/injection, schedule: Q01DX001 (ip), vehicle: Klucel (hydroxypropylcellulose) (HPC)) 97 % of control; (dose: 12.5 mg/kg/injection, schedule: Q01DX009 (ip), vehicle: saline with Tween-80) 101 % of control; (dose: 25.0 mg/kg/injection, schedule: Q01DX001 (ip), vehicle: Klucel (hydroxypropylcellulose) (HPC)) 101 % of control; (dose: 25.0 mg/kg/injection, schedule: Q01DX009 (ip), vehicle: saline with Tween-80) 103 % of control.
`O=C(Nc1cccc(F)c1)Nc1ccc([N+](=O)[O-])cc1Cl`: the T/C reads like this: (dose: 100.0 mg/kg/injection, schedule: Q01DX009 (ip), vehicle: Klucel (hydroxypropylcellulose) (HPC)) 101 % of control; (dose: 200.0 mg/kg/injection, schedule: Q01DX009 (ip), vehicle: Klucel (hydroxypropylcellulose) (HPC)) 100 % of control; (dose: 400.0 mg/kg/injection, schedule: Q01DX009 (ip), vehicle: Klucel (hydroxypropylcellulose) (HPC)) 103 % of control.
As to `CC(=O)Cc1c[nH]c2ccccc12`, the T/C under setting [4] is 103 % of control; the T/C under setting [5] was 97 % of control; the T/C under setting [7] was 97 % of control; the T/C under setting [6] was 106 % of control; the T/C under setting [8] was 101 % of control; the T/C (dose: 400.0 mg/kg/injection, schedule: Q01DX001 (ip), vehicle: carboxymethylcellulose (CMC)) was 103 % of control. For the same compound, the T/C under setting [9] is 111 % of control.
As to `CCCCNC(=O)COc1c(C)cccc1Cl`, the T/C by setting is: (dose: 25.0 mg/kg/injection, schedule: Q04DX002 (ip), vehicle: saline with Tween-80) 101 % of control; (dose: 50.0 mg/kg/injection, schedule: Q04DX002 (ip), vehicle: saline with Tween-80) 96 % of control; (dose: 100.0 mg/kg/injection, schedule: Q04DX002 (ip), vehicle: saline with Tween-80) 96 % of control.
`CCCCNc1nc(N)nc(Nc2ccc(Br)cc2)c1N=O`: the T/C by setting is: (dose: 100.0 mg/kg/injection, schedule: Q01DX001 (ip), vehicle: acetone) 103 % of control; (dose: 100.0 mg/kg/injection, schedule: Q04DX003 (ip), vehicle: acetone) 93 % of control; (dose: 200.0 mg/kg/injection, schedule: Q01DX001 (ip), vehicle: acetone) 100 % of control; (dose: 200.0 mg/kg/injection, schedule: Q04DX003 (ip), vehicle: acetone) 94 % of control; (dose: 400.0 mg/kg/injection, schedule: Q01DX001 (ip), vehicle: acetone) 106 % of control; (dose: 400.0 mg/kg/injection, schedule: Q04DX003 (ip), vehicle: acetone) 100 % of control.
Take `Nc1c(F)c(F)c(C(=O)O)c(F)c1F`: the T/C reads like this: (dose: 100.0 mg/kg/injection, schedule: Q04DX002 (ip), vehicle: saline) 94 % of control and 101 % of control; under setting [10], 97 % of control and 107 % of control; (dose: 800.0 mg/kg/injection, schedule: Q04DX002 (ip), vehicle: saline) 100 % of control.
For the compound `COP(=S)(OC)N(C)C`, the T/C by setting is: (dose: 75.0 mg/kg/injection, schedule: Q01DX001 (ip), vehicle: saline) 101 % of control; (dose: 150.0 mg/kg/injection, schedule: Q01DX001 (ip), vehicle: saline) 96 % of control.
Regarding `COc1cc2c(c(OC)c1O)-c1ccc(OC)c(=O)cc1[C@@H](NC(C)=O)CC2`, the T/C (dose: 25.0 mg/kg/injection, schedule: Q01DX009 (ip), vehicle: saline) is 159 % of control; the T/C (dose: 50.0 mg/kg/injection, schedule: Q01DX009 (ip), vehicle: saline) is 106 % of control and 108 % of control; the T/C (dose: 50.0 mg/kg/injection, schedule: Q04DX002 (ip), vehicle: saline) is 111 % of control; the T/C under setting [10] is 122 % of control; the T/C under setting [3] is 95 % of control.
As for `CCOC(=O)CC(C)=O.CCOC(=O)CC(C)=O.CCOC(=O)CC(C)=O.[Al]`, the T/C (dose: 12.5 mg/kg/injection, schedule: Q01DX005 (ip), vehicle: Klucel (hydroxypropylcellulose) (HPC)) is 96 % of control; the T/C (dose: 12.5 mg/kg/injection, schedule: Q01DX009 (ip), vehicle: Klucel (hydroxypropylcellulose) (HPC)) was 104 % of control; the T/C (dose: 25.0 mg/kg/injection, schedule: Q01DX005 (ip), vehicle: Klucel (hydroxypropylcellulose) (HPC)) was 100 % of control; the T/C (dose: 25.0 mg/kg/injection, schedule: Q01DX009 (ip), vehicle: Klucel (hydroxypropylcellulose) (HPC)) was 107 % of control; the T/C (dose: 50.0 mg/kg/injection, schedule: Q01DX005 (ip), vehicle: Klucel (hydroxypropylcellulose) (HPC)) was 93 % of control; the T/C under setting [7] is 100 % of control. The T/C under setting [8] is 93 % of control and the T/C under setting [9] was 107 % of control.
In the case of `OCC1N=C(c2ccccc2)OC1c1ccccc1` (configuration not stated), the T/C is, setting by setting: (dose: 50.0 mg/kg/injection, schedule: Q01DX009 (ip), vehicle: saline with Tween-80) 94 % of control; under setting [1], 102 % of control; under setting [2], 96 % of control.

Values taken from PubChem BioAssay AID248 (DTP/NCI, 2004).
